How the values were obtained:
Experiment in all cases: relative viability (nuclei count vs DMSO), 5 days (fraction); higher = more cells survive
NCI-H596 = tested on: NCI-H596
Method in brief: (§1)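 Lung cancer cell lines were pin-tool dosed in 1536-well plates on the day after seeding, with either a lone drug or a fixed anchor-drug dose plus five library-drug doses (not always all listed) in √10 steps. Nuclei were counted on 4× images after 5 days. Relative viability is the ratio of treated-well to vehicle-well nuclei counts, with each value a median of duplicate plates.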

SK-LU-1 = tested on: SK-LU-1
Method in brief: as §1

PC-3 [JPC-3] = tested on: PC-3 [JPC-3]
Method in brief: as §1

NCI-H1755 = tested on: NCI-H1755
Method in brief: as §1

NCI-H2009 = tested on: NCI-H2009
Method in brief: as §1

PC-14 = tested on: PC-14
Method in brief: as §1

NCI-H460 = tested on: NCI-H460
Method in brief: as §1

NCI-H1437 = tested on: NCI-H1437
Method in brief: as §1

HCC-15 = tested on: HCC-15
Method in brief: as §1

LXF-289 = tested on: LXF-289
Method in brief: as §1

H3255 = tested on: H3255
Method in brief: as §1

NCI-H1793 = tested on: NCI-H1793
Method in brief: as §1

A-427 = tested on: A-427
Method in brief: as §1

NCI-H1915 = tested on: NCI-H1915
Method in brief: as §1

UMC-11 = tested on: UMC-11
Method in brief: as §1

NCI-H441 = tested on: NCI-H441
Method in brief: as §1

NCI-H3122 = tested on: NCI-H3122
Method in brief: as §1

HARA = tested on: HARA
Method in brief: as §1

HCC-366 = tested on: HCC-366
Method in brief: as §1

NCI-H2405 = tested on: NCI-H2405
Method in brief: as §1

NCI-H1975 = tested on: NCI-H1975
Method in brief: as §1

NCI-H650 = tested on: NCI-H650
Method in brief: as §1

NCI-H2023 = tested on: NCI-H2023
Method in brief: as §1

O=c1[nH]c2ccccc2n1C1CCN(CCCC(c2ccc(F)cc2)c2ccc(F)cc2)CC1 [Pimozide] + COc1cc2c(Oc3ccc(NC(=O)C4(C(=O)Nc5ccc(F)cc5)CC4)cc3F)ccnc2cc1OCCCN1CCOCC1 [Foretinib] (partner 0.25 µM)
relative viability (NCI-H596; first compound 0.08 µM): 0.883 | relative viability (NCI-H596; first compound 0.253 µM): 0.902 | relative viability (NCI-H596; first compound 0.8 µM): 1.02 | relative viability (NCI-H596; first compound 2.53 µM): 0.78 | relative viability (NCI-H596; first compound 8 µM): 0.821 | relative viability (SK-LU-1; first compound 0.08 µM): 0.888 | relative viability (SK-LU-1; first compound 0.253 µM): 0.793 | relative viability (SK-LU-1; first compound 0.8 µM): 0.783 | relative viability (SK-LU-1; first compound 2.53 µM): 0.777 | relative viability (SK-LU-1; first compound 8 µM): 0.637 | relative viability (PC-3 [JPC-3]; first compound 0.08 µM): 0.839 | relative viability (PC-3 [JPC-3]; first compound 0.253 µM): 1.03 | relative viability (PC-3 [JPC-3]; first compound 0.8 µM): 0.952 | relative viability (PC-3 [JPC-3]; first compound 2.53 µM): 0.931 | relative viability (PC-3 [JPC-3]; first compound 8 µM): 0.86 | relative viability (NCI-H1755; first compound 0.08 µM): 0.929 | relative viability (NCI-H1755; first compound 0.253 µM): 0.928 | relative viability (NCI-H1755; first compound 0.8 µM): 0.874 | relative viability (NCI-H1755; first compound 2.53 µM): 0.948 | relative viability (NCI-H1755; first compound 8 µM): 0.812 | relative viability (NCI-H2009; first compound 0.08 µM): 1.24 | relative viability (NCI-H2009; first compound 0.253 µM): 1.12 | relative viability (NCI-H2009; first compound 0.8 µM): 1.19 | relative viability (NCI-H2009; first compound 2.53 µM): 1.09 | relative viability (NCI-H2009; first compound 8 µM): 1.13 | relative viability (PC-14; first compound 0.253 µM): 1 | relative viability (PC-14; first compound 0.8 µM): 0.943 | relative viability (PC-14; first compound 2.53 µM): 0.965 | relative viability (PC-14; first compound 8 µM): 1.02 | relative viability (NCI-H460; first compound 0.08 µM): 0.973 | relative viability (NCI-H460; first compound 0.253 µM): 1.03 | relative viability (NCI-H460; first compound 0.8 µM): 0.872 | relative viability (NCI-H460; first compound 2.53 µM): 0.864 | relative viability (NCI-H460; first compound 8 µM): 0.867 | relative viability (NCI-H1437; first compound 0.08 µM): 1.27 | relative viability (NCI-H1437; first compound 0.253 µM): 1.21 | relative viability (NCI-H1437; first compound 0.8 µM): 1.21 | relative viability (NCI-H1437; first compound 2.53 µM): 1.28 | relative viability (NCI-H1437; first compound 8 µM): 1.18 | relative viability (HCC-15; first compound 0.08 µM): 1.09 | relative viability (HCC-15; first compound 0.253 µM): 1.01 | relative viability (HCC-15; first compound 0.8 µM): 0.868 | relative viability (HCC-15; first compound 2.53 µM): 0.964 | relative viability (HCC-15; first compound 8 µM): 0.94 | relative viability (LXF-289; first compound 0.08 µM): 0.989 | relative viability (LXF-289; first compound 0.253 µM): 0.929 | relative viability (LXF-289; first compound 0.8 µM): 0.944 | relative viability (LXF-289; first compound 2.53 µM): 0.892 | relative viability (LXF-289; first compound 8 µM): 0.934 | relative viability (H3255; first compound 0.253 µM): 0.781 | relative viability (H3255; first compound 0.8 µM): 0.775 | relative viability (H3255; first compound 2.53 µM): 0.78 | relative viability (H3255; first compound 8 µM): 0.894 | relative viability (NCI-H1793; first compound 0.253 µM): 0.691 | relative viability (NCI-H1793; first compound 0.8 µM): 0.462 | relative viability (NCI-H1793; first compound 2.53 µM): 0.582 | relative viability (NCI-H1793; first compound 8 µM): 0.521 | relative viability (A-427; first compound 0.08 µM): 1.02 | relative viability (A-427; first compound 0.253 µM): 1.04 | relative viability (A-427; first compound 0.8 µM): 0.976 | relative viability (A-427; first compound 2.53 µM): 0.669 | relative viability (A-427; first compound 8 µM): 0.966 | relative viability (NCI-H1915; first compound 0.08 µM): 1.05 | relative viability (NCI-H1915; first compound 0.253 µM): 1.01 | relative viability (NCI-H1915; first compound 0.8 µM): 0.855 | relative viability (NCI-H1915; first compound 2.53 µM): 0.974 | relative viability (NCI-H1915; first compound 8 µM): 1.05 | relative viability (UMC-11; first compound 0.08 µM): 1.05 | relative viability (UMC-11; first compound 0.253 µM): 1.01 | relative viability (UMC-11; first compound 0.8 µM): 1 | relative viability (UMC-11; first compound 2.53 µM): 1.14 | relative viability (UMC-11; first compound 8 µM): 1.07 | relative viability (NCI-H441; first compound 0.08 µM): 1.09 | relative viability (NCI-H441; first compound 0.253 µM): 1.16 | relative viability (NCI-H441; first compound 0.8 µM): 1.1 | relative viability (NCI-H441; first compound 2.53 µM): 0.948 | relative viability (NCI-H441; first compound 8 µM): 0.922 | relative viability (NCI-H3122; first compound 0.08 µM): 0.911 | relative viability (NCI-H3122; first compound 0.253 µM): 1 | relative viability (NCI-H3122; first compound 0.8 µM): 0.91 | relative viability (NCI-H3122; first compound 2.53 µM): 0.968 | relative viability (NCI-H3122; first compound 8 µM): 0.923 | relative viability (HARA; first compound 0.253 µM): 0.874 | relative viability (HARA; first compound 0.8 µM): 0.873 | relative viability (HARA; first compound 2.53 µM): 0.733 | relative viability (HARA; first compound 8 µM): 0.766 | relative viability (HCC-366; first compound 0.08 µM): 0.862 | relative viability (HCC-366; first compound 0.253 µM): 0.952 | relative viability (HCC-366; first compound 0.8 µM): 0.866 | relative viability (HCC-366; first compound 2.53 µM): 0.925 | relative viability (HCC-366; first compound 8 µM): 0.859 | relative viability (NCI-H2405; first compound 0.08 µM): 1.03 | relative viability (NCI-H2405; first compound 0.253 µM): 1.02 | relative viability (NCI-H2405; first compound 0.8 µM): 1.04 | relative viability (NCI-H2405; first compound 2.53 µM): 0.961 | relative viability (NCI-H2405; first compound 8 µM): 0.838 | relative viability (NCI-H1975; first compound 0.08 µM): 0.948 | relative viability (NCI-H1975; first compound 0.253 µM): 0.84 | relative viability (NCI-H1975; first compound 0.8 µM): 1.02 | relative viability (NCI-H1975; first compound 2.53 µM): 0.847 | relative viability (NCI-H1975; first compound 8 µM): 0.952 | relative viability (NCI-H650; first compound 0.08 µM): 1.07 | relative viability (NCI-H650; first compound 0.253 µM): 1.02 | relative viability (NCI-H650; first compound 0.8 µM): 1 | relative viability (NCI-H650; first compound 2.53 µM): 1.04 | relative viability (NCI-H650; first compound 8 µM): 1.04 | relative viability (NCI-H2023; first compound 0.08 µM): 0.687 | relative viability (NCI-H2023; first compound 0.253 µM): 0.916 | relative viability (NCI-H2023; first compound 0.8 µM): 0.91 | relative viability (NCI-H2023; first compound 2.53 µM): 0.705 | relative viability (NCI-H2023; first compound 8 µM): 0.64
